Test results: ChEMBL document CHEMBL4020766, “Design and synthesis of potent inhibitors of the mono(ADP-ribosyl)transferase, PARP14” (Bioorg Med Chem Lett, 2017)

Key:
[1] = target: T1, Protein mono-ADP-ribosyltransferase PARP14 (Homo sapiens, UniProt Q460N5); test: Inhibition of recombinant human His6-tagged PARP14 catalytic/WWE domain (1459 to 1801 residues) expressed in Escherichia coli BL21(DE3) preincubated for 15 mins followed by biotinylated NAD+ addition by chemiluminescence assay
[2] = target: T2, Poly [ADP-ribose] polymerase 1 (Homo sapiens, UniProt P09874); test: Inhibition of recombinant human full length His6-tagged PARP1 expressed in Escherichia coli BL21(DE3) preincubated for 15 mins followed by biotinylated NAD+ addition by chemiluminescence assay
T2 sequence (P09874 whole entry, the tested form may be a part): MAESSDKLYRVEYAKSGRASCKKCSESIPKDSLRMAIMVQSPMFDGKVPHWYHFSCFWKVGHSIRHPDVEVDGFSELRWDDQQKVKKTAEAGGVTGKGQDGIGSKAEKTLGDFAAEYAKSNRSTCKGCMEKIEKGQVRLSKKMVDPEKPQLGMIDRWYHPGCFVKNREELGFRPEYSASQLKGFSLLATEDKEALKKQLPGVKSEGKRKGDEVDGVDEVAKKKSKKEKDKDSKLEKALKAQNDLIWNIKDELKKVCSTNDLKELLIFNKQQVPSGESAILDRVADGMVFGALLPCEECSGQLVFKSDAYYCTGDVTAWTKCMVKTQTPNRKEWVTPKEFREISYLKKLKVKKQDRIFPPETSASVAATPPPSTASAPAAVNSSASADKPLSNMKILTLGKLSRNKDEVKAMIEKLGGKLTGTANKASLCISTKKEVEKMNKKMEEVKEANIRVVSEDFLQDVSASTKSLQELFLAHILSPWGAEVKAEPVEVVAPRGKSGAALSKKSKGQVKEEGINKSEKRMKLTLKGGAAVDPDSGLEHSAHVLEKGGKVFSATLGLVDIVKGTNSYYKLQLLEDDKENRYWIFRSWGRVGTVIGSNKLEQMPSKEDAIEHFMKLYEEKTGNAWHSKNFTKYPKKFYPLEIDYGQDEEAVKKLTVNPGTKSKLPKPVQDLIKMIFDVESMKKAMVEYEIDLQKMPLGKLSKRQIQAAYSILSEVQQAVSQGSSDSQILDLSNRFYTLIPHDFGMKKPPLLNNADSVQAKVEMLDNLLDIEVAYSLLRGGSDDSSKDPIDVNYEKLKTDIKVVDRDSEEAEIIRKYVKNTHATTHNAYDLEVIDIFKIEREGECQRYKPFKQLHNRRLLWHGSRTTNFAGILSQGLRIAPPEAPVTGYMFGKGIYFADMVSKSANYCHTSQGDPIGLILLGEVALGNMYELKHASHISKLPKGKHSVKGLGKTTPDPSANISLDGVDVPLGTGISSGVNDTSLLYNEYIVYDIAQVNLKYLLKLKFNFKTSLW

[3] = target: T3, Poly [ADP-ribose] polymerase tankyrase-1 (Homo sapiens, UniProt O95271); test: Inhibition of recombinant human His6-tagged PARP5a catalytic domain (1091 to 1325 residues) expressed in Escherichia coli BL21(DE3) preincubated for 15 mins followed by biotinylated NAD+ addition by chemiluminescence assay
T3 sequence (O95271 whole entry): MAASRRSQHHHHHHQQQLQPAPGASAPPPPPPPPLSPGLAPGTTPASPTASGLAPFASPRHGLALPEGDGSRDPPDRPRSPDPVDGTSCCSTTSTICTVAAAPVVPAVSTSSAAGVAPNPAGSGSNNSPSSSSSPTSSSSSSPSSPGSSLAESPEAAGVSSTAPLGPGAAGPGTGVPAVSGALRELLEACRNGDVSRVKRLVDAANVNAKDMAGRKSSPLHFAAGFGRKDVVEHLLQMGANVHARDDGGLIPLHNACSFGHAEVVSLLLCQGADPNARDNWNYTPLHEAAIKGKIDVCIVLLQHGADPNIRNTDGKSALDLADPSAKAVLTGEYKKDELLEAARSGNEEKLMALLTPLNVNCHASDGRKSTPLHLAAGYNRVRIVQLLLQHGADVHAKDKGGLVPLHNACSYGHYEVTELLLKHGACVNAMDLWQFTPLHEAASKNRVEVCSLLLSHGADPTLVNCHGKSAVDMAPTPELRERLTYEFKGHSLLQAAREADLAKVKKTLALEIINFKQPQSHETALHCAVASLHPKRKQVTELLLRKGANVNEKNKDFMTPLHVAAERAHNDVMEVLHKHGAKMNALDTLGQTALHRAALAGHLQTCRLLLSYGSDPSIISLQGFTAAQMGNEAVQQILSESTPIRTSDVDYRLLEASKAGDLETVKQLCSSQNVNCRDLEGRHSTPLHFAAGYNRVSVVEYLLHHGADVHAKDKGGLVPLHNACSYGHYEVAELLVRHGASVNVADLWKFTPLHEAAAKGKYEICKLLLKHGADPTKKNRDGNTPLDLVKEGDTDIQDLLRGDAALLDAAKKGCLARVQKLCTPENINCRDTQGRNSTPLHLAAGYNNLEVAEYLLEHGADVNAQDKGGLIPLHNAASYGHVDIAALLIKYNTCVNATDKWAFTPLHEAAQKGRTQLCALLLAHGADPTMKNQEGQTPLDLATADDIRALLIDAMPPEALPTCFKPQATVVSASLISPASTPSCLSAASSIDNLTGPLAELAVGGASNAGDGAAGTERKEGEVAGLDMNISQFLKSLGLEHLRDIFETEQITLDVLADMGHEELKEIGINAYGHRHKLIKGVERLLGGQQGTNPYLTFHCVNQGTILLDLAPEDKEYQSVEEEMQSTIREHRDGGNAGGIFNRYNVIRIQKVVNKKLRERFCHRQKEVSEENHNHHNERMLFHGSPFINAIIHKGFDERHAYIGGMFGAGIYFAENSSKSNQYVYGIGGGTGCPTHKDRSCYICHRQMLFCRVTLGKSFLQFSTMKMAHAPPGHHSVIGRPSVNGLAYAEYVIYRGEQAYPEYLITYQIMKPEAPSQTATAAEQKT

[4] = target: T2, Poly [ADP-ribose] polymerase 1; test: Inhibition of recombinant human full length His6-tagged PARP1 expressed in Escherichia coli BL21(DE3) at 5 uM preincubated for 15 mins followed by biotinylated NAD+ addition by chemiluminescence assay relative to control
Homo sapiens = species on record: Homo sapiens; test: Selectivity ratio of IC50 for recombinant human His6-tagged PARP5a catalytic domain (1091 to 1325 residues) to IC50 for recombinant human His6-tagged PARP14 catalytic/WWE domain (1459 to 1801 residues)
[5] = target: T4, Protein mono-ADP-ribosyltransferase PARP12 (Homo sapiens, UniProt Q9H0J9); test: Inhibition of His6-tagged PARP12 (unknown origin) preincubated for 15 mins followed by biotinylated NAD+ addition by chemiluminescence assay
T4 sequence (Q9H0J9 whole entry): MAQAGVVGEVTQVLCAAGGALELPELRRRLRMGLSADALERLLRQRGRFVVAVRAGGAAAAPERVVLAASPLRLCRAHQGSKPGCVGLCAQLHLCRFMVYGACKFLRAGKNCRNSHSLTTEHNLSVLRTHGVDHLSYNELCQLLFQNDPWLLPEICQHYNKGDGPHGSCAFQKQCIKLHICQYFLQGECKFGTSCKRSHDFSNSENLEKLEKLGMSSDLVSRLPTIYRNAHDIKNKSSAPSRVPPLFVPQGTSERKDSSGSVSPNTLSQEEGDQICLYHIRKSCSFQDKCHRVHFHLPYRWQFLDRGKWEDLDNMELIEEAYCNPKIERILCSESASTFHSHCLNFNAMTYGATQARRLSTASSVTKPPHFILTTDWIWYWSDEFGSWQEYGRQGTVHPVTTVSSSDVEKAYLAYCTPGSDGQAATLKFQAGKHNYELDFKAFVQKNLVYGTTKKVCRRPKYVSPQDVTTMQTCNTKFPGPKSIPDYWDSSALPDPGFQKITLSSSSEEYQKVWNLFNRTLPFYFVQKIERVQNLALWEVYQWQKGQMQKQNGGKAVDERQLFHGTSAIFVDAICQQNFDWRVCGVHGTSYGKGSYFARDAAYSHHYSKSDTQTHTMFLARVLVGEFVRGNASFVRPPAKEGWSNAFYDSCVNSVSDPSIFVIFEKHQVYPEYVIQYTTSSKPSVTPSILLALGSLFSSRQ

[6] = target: T5, Protein mono-ADP-ribosyltransferase PARP15 (Homo sapiens, UniProt Q460N3); test: Inhibition of His6-tagged PARP15 (unknown origin) preincubated for 15 mins followed by biotinylated NAD+ addition by chemiluminescence assay
T5 sequence (Q460N3 whole entry): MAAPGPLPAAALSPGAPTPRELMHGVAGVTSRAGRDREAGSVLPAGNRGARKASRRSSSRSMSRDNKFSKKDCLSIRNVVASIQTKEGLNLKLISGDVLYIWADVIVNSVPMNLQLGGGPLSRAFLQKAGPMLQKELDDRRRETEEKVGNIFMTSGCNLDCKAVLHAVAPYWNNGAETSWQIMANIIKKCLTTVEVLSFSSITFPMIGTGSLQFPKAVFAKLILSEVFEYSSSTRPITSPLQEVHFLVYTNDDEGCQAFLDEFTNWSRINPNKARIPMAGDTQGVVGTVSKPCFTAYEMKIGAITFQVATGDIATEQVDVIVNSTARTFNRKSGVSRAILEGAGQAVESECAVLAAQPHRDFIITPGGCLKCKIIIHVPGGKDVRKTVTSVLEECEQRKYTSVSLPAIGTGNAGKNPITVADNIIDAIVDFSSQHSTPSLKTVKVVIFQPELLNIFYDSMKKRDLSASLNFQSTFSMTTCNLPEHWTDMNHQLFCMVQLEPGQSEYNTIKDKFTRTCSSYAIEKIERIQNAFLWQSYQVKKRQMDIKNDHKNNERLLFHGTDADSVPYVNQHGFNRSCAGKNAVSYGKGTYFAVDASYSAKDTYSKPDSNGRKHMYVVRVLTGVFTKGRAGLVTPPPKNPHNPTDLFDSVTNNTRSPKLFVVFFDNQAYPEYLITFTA

[7] = target: T6, Protein mono-ADP-ribosyltransferase PARP16 (Homo sapiens, UniProt Q8N5Y8); test: Inhibition of His6-tagged PARP16 (unknown origin) preincubated for 15 mins followed by biotinylated NAD+ addition by chemiluminescence assay
T6 sequence (Q8N5Y8 whole entry): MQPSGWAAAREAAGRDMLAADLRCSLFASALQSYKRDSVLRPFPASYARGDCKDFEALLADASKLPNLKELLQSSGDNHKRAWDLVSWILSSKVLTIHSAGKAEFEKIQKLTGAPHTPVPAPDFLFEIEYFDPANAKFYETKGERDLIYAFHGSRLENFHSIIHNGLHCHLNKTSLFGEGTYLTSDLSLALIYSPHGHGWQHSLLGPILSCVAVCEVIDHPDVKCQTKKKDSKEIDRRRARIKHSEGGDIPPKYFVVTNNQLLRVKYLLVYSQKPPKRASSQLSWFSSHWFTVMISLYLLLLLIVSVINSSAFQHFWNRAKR

[8] = target: T1, Protein mono-ADP-ribosyltransferase PARP14; test: Inhibition of recombinant human His6-tagged PARP14 catalytic/WWE domain (1459 to 1801 residues) expressed in Escherichia coli BL21(DE3) at 5 uM preincubated for 15 mins followed by biotinylated NAD+ addition by chemiluminescence assay relative to control

T1 sequence (Q460N5 whole entry, the tested form may be a part): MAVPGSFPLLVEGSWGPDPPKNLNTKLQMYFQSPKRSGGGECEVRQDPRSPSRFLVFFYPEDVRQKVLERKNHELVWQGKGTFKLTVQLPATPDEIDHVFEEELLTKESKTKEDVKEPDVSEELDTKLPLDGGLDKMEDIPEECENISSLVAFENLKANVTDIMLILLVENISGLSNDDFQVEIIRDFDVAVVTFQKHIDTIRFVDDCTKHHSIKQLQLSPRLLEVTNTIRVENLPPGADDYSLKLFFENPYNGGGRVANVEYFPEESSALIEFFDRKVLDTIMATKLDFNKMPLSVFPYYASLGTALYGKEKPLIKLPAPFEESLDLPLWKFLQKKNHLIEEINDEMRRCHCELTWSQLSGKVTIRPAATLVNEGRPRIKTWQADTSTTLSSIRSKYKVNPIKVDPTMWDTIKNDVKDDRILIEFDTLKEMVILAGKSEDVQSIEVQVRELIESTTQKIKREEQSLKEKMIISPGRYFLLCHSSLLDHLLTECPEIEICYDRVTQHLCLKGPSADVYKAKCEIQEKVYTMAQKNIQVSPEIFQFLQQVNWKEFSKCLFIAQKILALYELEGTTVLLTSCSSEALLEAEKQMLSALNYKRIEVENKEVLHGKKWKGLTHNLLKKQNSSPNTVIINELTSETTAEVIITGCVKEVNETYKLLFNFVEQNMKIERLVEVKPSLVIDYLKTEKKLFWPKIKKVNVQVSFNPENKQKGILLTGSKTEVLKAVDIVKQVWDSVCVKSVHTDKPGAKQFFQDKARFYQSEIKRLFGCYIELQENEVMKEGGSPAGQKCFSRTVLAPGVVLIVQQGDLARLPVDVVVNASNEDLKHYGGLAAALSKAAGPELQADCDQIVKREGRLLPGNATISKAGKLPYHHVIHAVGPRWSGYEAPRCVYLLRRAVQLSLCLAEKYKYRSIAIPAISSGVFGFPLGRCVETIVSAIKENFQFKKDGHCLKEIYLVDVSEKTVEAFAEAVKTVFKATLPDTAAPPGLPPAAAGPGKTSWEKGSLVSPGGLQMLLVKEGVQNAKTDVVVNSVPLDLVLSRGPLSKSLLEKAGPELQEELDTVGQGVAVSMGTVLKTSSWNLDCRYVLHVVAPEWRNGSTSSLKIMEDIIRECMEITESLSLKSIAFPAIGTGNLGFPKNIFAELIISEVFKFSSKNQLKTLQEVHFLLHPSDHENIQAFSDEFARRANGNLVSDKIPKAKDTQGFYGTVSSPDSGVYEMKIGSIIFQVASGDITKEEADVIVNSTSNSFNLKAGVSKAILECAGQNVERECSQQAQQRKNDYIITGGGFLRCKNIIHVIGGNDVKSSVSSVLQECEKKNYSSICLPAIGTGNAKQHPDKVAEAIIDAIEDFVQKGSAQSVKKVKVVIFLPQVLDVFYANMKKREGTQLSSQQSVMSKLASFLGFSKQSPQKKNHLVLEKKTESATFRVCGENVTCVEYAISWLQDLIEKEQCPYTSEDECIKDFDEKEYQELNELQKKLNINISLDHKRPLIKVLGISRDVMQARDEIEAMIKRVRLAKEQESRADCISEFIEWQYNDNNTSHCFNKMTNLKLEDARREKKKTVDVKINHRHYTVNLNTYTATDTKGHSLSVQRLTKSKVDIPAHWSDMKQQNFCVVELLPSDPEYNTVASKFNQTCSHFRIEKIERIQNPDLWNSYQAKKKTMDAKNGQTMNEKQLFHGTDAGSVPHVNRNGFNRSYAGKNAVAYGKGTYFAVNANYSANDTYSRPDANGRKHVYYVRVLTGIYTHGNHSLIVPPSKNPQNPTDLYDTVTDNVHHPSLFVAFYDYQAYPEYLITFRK

| SMILES | IC50 ([1]; read-out: IC50) [nM] | IC50 [2] [nM] | IC50 ([3]; read-out: IC50) [nM] | Ratio IC50 (Homo sapiens) | other results |
| --- | --- | --- | --- | --- | --- |
| NC(=O)c1cccc(NC(=O)/C=C\C(=O)N2CCCC(c3ccccc3)C2)c1 (stereo unspecified) | 690 | 1600 | 2700 | – | IC50 ([3]; read-out: pIC50 (converted)): 575 nM |
| CC(C)(C)OC(=O)N1CCN(C(=O)/C=C\C(=O)Nc2cccc(C(N)=O)c2)CC1 | 370 | – | – | – | – |
| NC(=O)c1cccc(NC(=O)/C=C\C(=O)N2CCCCC2c2ccccc2)c1 (stereo unspecified) | 1100 | – | – | – | – |
| NC(=O)c1cccc(NC(=O)/C=C\C(=O)N2CCCC(Oc3ccccc3)C2)c1 (stereo unspecified) | 1400 | – | – | – | inhibition [4]: 90% |
| COc1ccc(N2CCN(C(=O)/C=C\C(=O)Nc3cccc(C(N)=O)c3)CC2)cc1 | 3400 | – | – | – | – |
| NC(=O)c1cccc(NC(=O)/C=C\C(=O)N2CCCCC2Cc2ccccc2)c1 (stereo unspecified) | 3500 | – | – | – | – |
| NC(=O)c1cccc(NC(=O)/C=C\C(=O)N2CCC(c3ccc(F)cc3)CC2)c1 | 270 | 270 | 8000 | 30 | – |
| NC(=O)c1cccc(N2C(=O)CC(N3CCN(c4ccccc4F)CC3)C2=O)c1 (stereo unspecified) | > 20000 | – | – | – | – |
| NC(=O)c1cccc(NC(=O)/C=C\C(=O)N2CCN(c3ccccc3)CC2)c1 | 900 | 370 | 6000 | 6.7 | – |
| NC(=O)c1cccc(NC(=O)/C=C\C(=O)N2CCN(c3ccc(F)cc3)CC2)c1 | 700 | 560 | 2700 | 3.9 | IC50 [5]: 8200 nM; IC50 [6]: 520 nM; IC50 [7]: 560 nM |
| NC(=O)c1cccc(NC(=O)/C=C\C(=O)N2CCC(c3ccccc3)CC2)c1 | 2200 | – | – | – | – |
| NC(=O)c1cccc(NC(=O)/C=C\C(=O)N2CCN(c3ccc(Cl)cc3)CC2)c1 | 160 | 220 | 900 | 5.6 | IC50 ([1]; read-out: pIC50 (converted)): 617 nM; IC50 ([3]; read-out: pIC50 (converted)): 977 nM |
| NC(=O)c1cccc(NC(=O)/C=C\C(=O)N2CCN(c3ccccc3F)CC2)c1 | 410 | 510 | 9400 | 23 | – |
| NC(=O)c1cccc(NC(=O)/C=C\C(=O)N2CCN(c3ncccn3)CC2)c1 | 2800 | – | – | – | – |
| CCOC(=O)CC1CCN(C(=O)/C=C\C(=O)Nc2cccc(C(N)=O)c2)CC1 | 2400 | – | – | – | IC50 ([1]; read-out: pIC50 (converted)): 407 nM |
| CCOC(=O)C1CCN(C(=O)/C=C\C(=O)Nc2cccc(C(N)=O)c2)CC1 | – | – | – | – | inhibition [8]: 28% |
| NC(=O)c1cccc(NC(=O)/C=C\C(=O)N2CCC(CCc3ccccc3)CC2)c1 | 650 | – | – | – | IC50 ([1]; read-out: pIC50 (converted)): 676 nM |
| NC(=O)c1cccc(NC(=O)/C=C\C(=O)N2CCN(c3ccc(-c4ccccc4)cc3)CC2)c1 | 4200 | 800 | 9800 | – | – |
| NC(=O)c1cccc(NC(=O)/C=C\C(=O)N2CCC(Cc3ccccc3)CC2)c1 | 450 | 230 | 4800 | 11 | – |
| CCOC(=O)C1CCCN(C(=O)/C=C\C(=O)Nc2cccc(C(N)=O)c2)C1 (stereo unspecified) | – | – | – | – | inhibition [8]: 21% |
